# Assay results taken from ChEMBL document CHEMBL1201862, “PubChem BioAssay data set” (2004).
# The source made the active and inactive calls. No stated cut-off is given here; in the data, actives have a measured EC50 and inactives only a lower limit.
# Molecular target: T1, Serine/threonine-protein phosphatase (Candida dubliniensis (strain CD36 / CBS 7987 / NCPF 3949 / NRRLY-17841) (Yeast), UniProt B9W6M3)
# T1 sequence (B9W6M3 whole entry): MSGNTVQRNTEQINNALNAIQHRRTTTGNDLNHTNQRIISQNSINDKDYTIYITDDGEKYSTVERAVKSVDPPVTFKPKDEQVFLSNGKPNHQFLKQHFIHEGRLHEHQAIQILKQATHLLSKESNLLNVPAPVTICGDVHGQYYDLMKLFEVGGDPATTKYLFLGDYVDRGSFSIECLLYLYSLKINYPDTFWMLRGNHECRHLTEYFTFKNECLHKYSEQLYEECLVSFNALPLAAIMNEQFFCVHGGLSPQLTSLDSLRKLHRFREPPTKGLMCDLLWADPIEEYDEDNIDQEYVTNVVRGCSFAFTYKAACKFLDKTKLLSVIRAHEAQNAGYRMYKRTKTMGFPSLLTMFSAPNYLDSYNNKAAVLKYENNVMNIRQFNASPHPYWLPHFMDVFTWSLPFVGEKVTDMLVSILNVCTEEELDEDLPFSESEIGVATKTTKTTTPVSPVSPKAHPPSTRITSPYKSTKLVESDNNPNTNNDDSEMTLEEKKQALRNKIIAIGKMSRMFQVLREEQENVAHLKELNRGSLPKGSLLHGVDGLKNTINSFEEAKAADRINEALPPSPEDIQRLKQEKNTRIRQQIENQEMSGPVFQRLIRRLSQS
# Test: blockers of CaCl2-induced CDRE-lacZ signaling – S. cerevisiae, luminescence, secondary, dose response (AID 2388);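 further: yeast reporter cells carrying a calcineurin-responsive lacZ construct stimulated with calcium chloride; luminescent beta-galactosidase reporter signal in whole cells rather than isolated phosphatase activity; potency for inhibition where a drop in reporter signal means calcineurin blockade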
# Format: functional, cell-based
smiles,measurement,value
CCCCC(=O)NC(c1ccc(N(CC)CC)cc1)c1ccc2cccnc2c1O (stereo unspecified),EC50,> 180 µM (inactive)
